From ChEMBL document CHEMBL1127283, “Structure of maesaquinone” (Bioorg Med Chem Lett, 1994)
In brackets after ≈: the same amount, converted by molar mass.

Legend:
BT-20 = experiment: Compound was tested for its cytotoxicity against BT-20 breast carcinoma cells; type: functional, cell-based; settings: Homo sapiens
HeLa [1] = experiment: Compound was tested for its cytotoxicity against HeLa epithelioid cervix carcinoma cells; type: functional, cell-based; settings: Homo sapiens
[2] = molecular target: T1, Polyunsaturated fatty acid 5-lipoxygenase (Homo sapiens) (UniProt P09917); experiment: Compound was tested for its inhibitory activity against 5-lipoxygenase
T1 sequence (whole entry): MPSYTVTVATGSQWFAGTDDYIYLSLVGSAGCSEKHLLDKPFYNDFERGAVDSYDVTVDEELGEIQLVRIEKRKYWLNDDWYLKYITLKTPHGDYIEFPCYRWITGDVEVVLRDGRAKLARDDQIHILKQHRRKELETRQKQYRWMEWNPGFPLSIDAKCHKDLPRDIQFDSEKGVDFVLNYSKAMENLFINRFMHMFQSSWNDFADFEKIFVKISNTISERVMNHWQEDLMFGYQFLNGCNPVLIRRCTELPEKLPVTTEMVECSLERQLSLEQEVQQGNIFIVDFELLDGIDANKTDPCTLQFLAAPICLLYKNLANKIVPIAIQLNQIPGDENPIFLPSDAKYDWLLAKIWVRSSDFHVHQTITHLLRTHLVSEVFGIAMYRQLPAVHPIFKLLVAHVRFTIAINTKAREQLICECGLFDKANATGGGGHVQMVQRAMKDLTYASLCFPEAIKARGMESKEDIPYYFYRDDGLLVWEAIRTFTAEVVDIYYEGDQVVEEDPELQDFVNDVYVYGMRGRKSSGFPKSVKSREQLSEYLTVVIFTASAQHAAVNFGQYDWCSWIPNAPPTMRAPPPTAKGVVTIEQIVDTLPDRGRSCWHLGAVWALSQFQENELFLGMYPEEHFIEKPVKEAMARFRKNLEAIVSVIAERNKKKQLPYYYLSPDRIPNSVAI

HeLa [3] = experiment: Compound was tested for its cytotoxicity against HeLa epithelioid cervix carcinoma cells.; type: functional, cell-based; settings: Homo sapiens

IC90 [2]	Compound	IC50 (BT-20)	IC50 (HeLa [1])	IC50 (HeLa [3])
	CCCC/C=C\CCCCCCCCCC1=C(O)C(O)=C(C)C(=O)C1=O	1.58 µg/mL (≈ 4.36 µM)	2.05 µg/mL (≈ 5.66 µM)	
3000 nM	CCCC/C=C\CCCCCCCCCC1=C(O)C(OC)=CC(=O)C1=O	1.8 µg/mL (≈ 4.97 µM)		1.25 µg/mL (≈ 3.45 µM)
